Test [1] has as its target T1, human PNKP (hPNKP) 3'-phosphatase activity (Homo sapiens, UniProt Q96T60).
T1 construct: made in house; host or cells: bacteria (said only for the batch compared with aprataxin)
In words: Fluorescence quenching-based screening assay for PNKP 3'-phosphatase activity. The class given is biochemical. The note with it: 100 μM compound, 50 ng hPNKP. The procedure: The […] assay developed originally for protein kinases by QTL Biosystems (Santa Fe, N. Mex.) was modified. […] The TAMRA-labelled oligonucleotide lacking a 3'-phosphate served as a control. […] The assay was performed in 384-well white Optiplate microplates (PerkinElmer, Woodbridge, ON) in 70 mM Tris-HCl, pH 7.4, 60 mM MgCl2, 5 mM MnCl2, 0.3% BSA, 0.09% sodium azide. Reaction buffer was prepared by adding 1 mM DTT immediately prior to use. Five μL of 3'-phosphatase substrate (final concentration 0.5 μM) was used per well. In duplicate, 10 μl of each concentration of hPNKP was added per well. Plates were incubated for 1 hour at 37° C. and then 15 μl of 1× sensor solution (provided by QTL) was added to each well and incubated for 30 minutes at room temperature. Fluorescence (485 nm excitation and 520 nm emission wavelengths) of each well was read in a FLUOstar Optima® (BMG Labtech Inc, Durham, N.C.). Data were analyzed using GraphPad Prism® Software (San Diego, Calif.). […] Small molecules were provided in powder form and were dissolved in 100% DMSO and a final concentration of 100 μM was added to each well and assays were performed as described above. After obtaining an optimum calibration curve and enzyme concentration curve, a simplified form of the assay to test the library in a short time, was employed. One concentration of hPNKP, 50 ng, was tested and compared with the control well with no enzyme. The assay was conducted in the same way as described above with respect to oligonucleotides, buffer, controls, incubation lengths/temperatures, centrifugations and sensor addition. The fluorescence-based phosphatase assay adapted was originally developed to monitor protein phosphatase activity (34). This assay involves a fluorescent sensor molecule coated in trivalent metal cations which causes superquenching of the sensor signal when in close proximity to a dye (TAMRA) on the substrate. The sensor is brought close to TAMRA via the ionic bond formed between the terminal DNA phosphate and the trivalent metal cations on the sensor. Removal of the phosphate leads to an elevation of fluorescence because the sensor is not brought close enough to TAMRA for its signal to be quenched. […] Heat inactivated hPNKP was used as a control.

The target of test [2] is T2, hPNKP 3'-phosphatase activity (Homo sapiens, UniProt Q96T60).
T2 construct: made in house; host or cells: bacteria (said only for the batch compared with aprataxin)
In words: Conventional radio-gel assay for hPNKP 3'-phosphatase activity. The class given is biochemical.

Test [3] has as its system M059J cells (DNA-PKcs negative). In kind it is cell-based, human.
Test [4] concerns A549-VO vector only control cells.
For the next test, the target named is T3, PP-1cγ (Homo sapiens, UniProt P36873).
T3 construct: made in house; host or cells: E. coli
T3 sequence (P36873 whole entry): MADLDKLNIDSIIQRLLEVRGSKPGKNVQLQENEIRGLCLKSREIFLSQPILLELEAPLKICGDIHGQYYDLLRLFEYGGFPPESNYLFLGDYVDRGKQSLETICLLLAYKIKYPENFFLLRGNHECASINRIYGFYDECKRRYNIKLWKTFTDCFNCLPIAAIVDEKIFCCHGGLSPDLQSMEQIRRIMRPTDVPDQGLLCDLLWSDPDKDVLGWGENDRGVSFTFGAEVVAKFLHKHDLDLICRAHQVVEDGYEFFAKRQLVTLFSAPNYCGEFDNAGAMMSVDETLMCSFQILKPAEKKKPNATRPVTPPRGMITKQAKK
In words: PP-1cγ pNPP phosphatase assay. In kind it is biochemical. On the procedure: PP-1cγ and calcineurin activity was analyzed, using a colorimetric p-nitrophenol phosphate (pNPP) assay as previously described (33). The reaction were carried out in a 96-well microplate with a final volume of 60 μl containing 40 μl of pNPP assay buffer (50 mM Tris, pH 7.4, 0.1 mM EDTA, 30 mM MgCl2, 0.5 mM MnCl2, 1 mg/ml BSA, 0.2% β-mercaptoethanol), 0.03 μg PP-1cγ (specific activity>30 units per mg) or a catalytically equivalent quantity of calcineurin and 10 μl of 0.5 mM DNA 3′-phosphatase inhibitor sample in DMSO or 10 μl of 50 μM A12B4C3 sample in DMSO, or control solvent. After a 10-minute incubation at 37° C., 10 μl of 30 mM pNPP was added to each well and incubated for an additional of 60 minutes and 45 minutes for PP-1cγ and calcineurin, respectively.

Entries after “also recorded” stand apart in the source; their conditions may differ. Starred links: 1 amine or outer side, 2 acyl side, 3 side chain; linkers in the order of their positions; H or OH if unused. Positions of bridges follow the written chain, without caps; N, C: chain ends. Non-standard residues stand in square brackets, D forms with d. Residues, ends and D or L forms follow the SMILES beside them. Adda = CO[C@@H](Cc1ccccc1)[C@@H](C)/C=C(C)/C=C/[C@H](N[*:1])[C@H](C)C(=O)[*:2]; dAsp(3S-Me) = C[C@H](C(=O)[*:3])[C@@H](N[*:1])C(=O)[*:2]; d(γGlu) = O=C(O)[C@@H](CCC(=O)[*:2])N[*:1]; NMeDha = C=C(NC)C(=O)O

As for `O=C1C2C=CC(C(O)c3ccccc3)N(Nc3ccc([N+](=O)[O-])cc3)C2C(=O)N1c1ccccc1` (stereo not drawn) [Compound A1B4C3, 2-(hydroxy(phenyl)methyl)-1-(4-nitrophenylamino)-6-phenyl-6,7a-dihydro-1H-pyrrolo[3,4-b]pyridine-5,7(2H,4aH)-dione], the “inhibition of hPNKP phosphatase activity (substrate dephosphorylation) in the screening assay” value (“inhibition … in the screening assay” below) in test [1] is “significant inhibition; also recorded: marked inhibition”. In test [2], the “inhibition of hPNKP phosphatase activity, radio-gel assay” value (shortened to “inhibition … radio-gel assay”) is recorded as “inhibited”.

For the molecule `CN1C(=O)C2C=CC(C(O)c3cccs3)N(Nc3ccccc3)C2C1=O` (stereo not drawn) [Compound A39B1C2, 2-(hydroxy(thiophen-2-yl)methyl)-6-methyl-1-(phenylamino)-6,7a-dihydro-1H-pyrrolo[3,4-b]pyridine-5,7(2H,4aH)-dione], the “inhibition … in the screening assay” value in test [1] is “significant inhibition; also recorded: marked inhibition”. Moreover, the “inhibition … radio-gel assay” value in test [2] is reported as “inhibited”.

`CN1C(=O)C2C=CC(C(O)C(c3ccccc3)c3ccccc3)N(NC(=O)OC(C)(C)C)C2C1=O` (stereo not drawn) [Compound A26B11C2, tert-butyl 2-(1-hydroxy-2,2-diphenylethyl)-6-methyl-5,7-dioxo-2,4a,5,6,7,7a-hexahydro-1H-pyrrolo[3,4-b]pyridin-1-ylcarbamate]: the “inhibition … in the screening assay” value in test [1] is “significant inhibition; also recorded: marked inhibition”. The “inhibition … radio-gel assay” value in test [2] is “inhibited”.

Take `O=C1NCCc2c(OCCCCN3CCCCC3)cccc21` [DPQ, 3,4-dihydro-5[4-(1-piperindinyl)butoxy]-1(2H)-isoquinoline]: the “cell survival of M059J cells” value in test [3] is on record as “reduced survival”. In addition, the “cell survival of control cells (A549-VO)” value in test [4] is reported as “no such relationship”.

Consider `C=C1C(=O)N[C@H](C)C(=O)N[C@@H](CC(C)C)C(=O)N[C@@H](C(=O)O)[C@H](C)C(=O)N[C@@H](CCCNC(=N)N)C(=O)N[C@@H](/C=C/C(C)=C/[C@H](C)[C@H](Cc2ccccc2)OC)[C@H](C)C(=O)N[C@@H](C(=O)O)CCC(=O)N1C` [microcystin LR, reference compound] (R[Adda][d(γGlu)][NMeDha][dA]L[dAsp(3S-Me)]-OH; lactam N-7), for which, on PP-1cγ, the “reduction of the activity of PP1” value is approximately 65%.
